Measurements published in patent publication US20220402950A1, “SUBSTITUTED BENZIMIDAZOLES AS PAD4 INHIBITORS” (BRISTOL-MYERS SQUIBB COMPANY, priority 2018, published 2022).

Each compound was assayed against human PAD4 (hPAD4) (Homo sapiens, UniProt Q9UM07) (assay: RFMS Human PAD4 Functional Assay). Settings: hPAD4 RFMS IC50, human PAD4, rapid-fire mass spectrum (RFMS) assay; 5 nM hPAD4, 250 μM BAEE.
Format: biochemical
Procedure: RFMS Human PAD4 Functional Assay:
Compounds were solubilized in 100% DMSO to achieve a 10 mM compound concentration. Compound stock solutions were stored at RT. A series of dilutions were prepared in DMSO and mixed 8 times with 20 μL mixing volume. Final top concentration of compound in the assay is 50 μM.
0.13 μL of compound solution was added to 13 μL of 10 nM PAD4 in assay buffer. After 30 min 13 μl of 500 μM of BAEE was added in 25 mM hepes, pH 7.5, 5 mM NaCl, 1 mM DTT, 0.2 mg/ml BSA, 0.01% CHAPS, 50 μM Calcium, 5 μM TPEN was added and the reaction incubated for 90 min at 37° C. The enzymatic reaction was quenched by addition of 15 μl of 6.1N TCA, 100% Final Concentration is 20%, 35 μl of 8.5 mM phenyl glyoxal (final concentration 4 mM) is then added and the reaction is incubated for 30 min at 37° C.
After 30 minutes the plates are spun down to remove all precipitate. The enzyme reaction was quenched with an equal volume of methanol containing internal standard (modified citrulline). Samples were loaded onto the Rapid Fire RF300 system (Agilent) wherein they were first sipped for 1000 ms and then directly loaded to a C18 separations cartridge using a mixture of acetonitrile containing 0.01% formic acid for 3000 ms desalting. The flow rate of the mobile phase was 1.5 ml/min.
The dwell time for each transition was set at 200 ms, and the ESI voltage was used at 5500 with a source temperature of 400° C. Extracted ion peaks for each transition were integrated using the Rapid Fire Integrator software. Peak area of analyte was normalized with internal standard.).

Chain of human PAD4 (hPAD4) (Q9UM07 whole entry): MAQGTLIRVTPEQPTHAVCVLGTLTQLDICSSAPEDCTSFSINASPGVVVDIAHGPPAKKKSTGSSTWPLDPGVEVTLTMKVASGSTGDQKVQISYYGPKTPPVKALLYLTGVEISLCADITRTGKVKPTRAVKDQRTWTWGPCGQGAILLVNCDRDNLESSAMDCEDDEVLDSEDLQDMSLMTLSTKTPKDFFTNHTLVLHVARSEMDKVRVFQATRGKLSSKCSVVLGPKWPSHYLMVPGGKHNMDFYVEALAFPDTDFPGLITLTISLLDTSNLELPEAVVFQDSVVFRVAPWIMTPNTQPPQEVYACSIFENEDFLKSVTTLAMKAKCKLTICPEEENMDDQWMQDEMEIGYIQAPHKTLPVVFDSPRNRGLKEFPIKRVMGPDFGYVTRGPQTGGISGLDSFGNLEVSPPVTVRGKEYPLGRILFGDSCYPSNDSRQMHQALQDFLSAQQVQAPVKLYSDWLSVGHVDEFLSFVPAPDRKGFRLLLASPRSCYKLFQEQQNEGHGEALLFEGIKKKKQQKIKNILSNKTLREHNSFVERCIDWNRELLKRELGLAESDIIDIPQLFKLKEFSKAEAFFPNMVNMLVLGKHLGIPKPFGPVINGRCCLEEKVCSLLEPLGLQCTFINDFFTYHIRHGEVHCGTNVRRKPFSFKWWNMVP

In order of falling IC50:
1. COc1cc(C(=O)N2C[C@H]3CC[C@@H]2[C@@H]3N)cc2nc(-c3cc4cccc(C5CN(C(=O)C(C)(C)C)C5)c4n3CC3CC3)n(C)c12 [Example 67, 1-[3-(2-{5-[(1R,4R,7R)-7-amino-2-azabicyclo[2.2.1]heptane-2-carbonyl]-7-methoxy-1-methyl-1H-1,3-benzodiazol-2-yl}-1-(cyclopropylmethyl)-1H-indol-7-yl)azetidin-1-yl]-2,2-dimethylpropan-1-one]  189 nM
2. COc1cc(C(=O)N2CC3CC[C@@H]2[C@@H]3N)cc2nc(-c3cc4cccc(-c5ccc6c(c5)C(C)(C)OC(=O)N6)c4n3CC3CC3)n(C)c12 (stereo in doubt) [Example 142, 6-(2-(5-((1R,4S)-7-amino-2-azabicyclo[2.2.1]heptane-2-carbonyl)-7-methoxy-1-methyl-1H-benzo[d]imidazol-2-yl)-1-(cyclopropylmethyl)-1H-indol-7-yl)-4,4-dimethyl-1,4-dihydro-2H-benzo[d][1,3]oxazin-2-one]  180 nM
3. COc1cc(C(=O)N2C[C@H]3CC[C@@H]2[C@@H]3N)cc2nc(-c3cc4cccc(-c5cccs5)c4n3CC3CC3)n(C)c12 [Example 131, ((1R,4R,7R)-7-amino-2-azabicyclo[2.2.1]heptan-2-yl)(2-(1-(cyclopropylmethyl)-7-(thiophen-2-yl)-1H-indol-2-yl)-7-methoxy-1-methyl-1H-benzo[d]imidazol-5-yl)methanone]  156 nM
4. COc1cc(C(=O)N2C[C@H]3CC[C@@H]2[C@@H]3N)cc2nc(-c3cc4cccc(-c5cccc6c5CNC6=O)c4n3CC3CC3)n(C)c12 [Example 96, 4-(2-{5-[(1R,4R,7R)-7-amino-2-azabicyclo[2.2.1]heptane-2-carbonyl]-7-methoxy-1-methyl-1H-1,3-benzodiazol-2-yl}-1-(cyclopropylmethyl)-1H-indol-7-yl)-2,3-dihydro-1H-isoindol-1-one]  144 nM
5. COc1cc2c(cc1-c1cccc3cc(-c4nc5cc(C(=O)N6C[C@H]7CC[C@@H]6[C@@H]7N)cc(OC)c5n4C)n(CC4CC4)c13)CCC(=O)N2 [Example 204, 6-(2-(5-((1R,4R,7R)-7-amino-2-azabicyclo[2.2.1]heptane-2-carbonyl)-7-methoxy-1-methyl-1H-benzo[d]imidazol-2-yl)-1-(cyclopropylmethyl)-1H-indol-7-yl)-7-methoxy-3,4-dihydroquinolin-2(1H)-one]  139 nM
6. COC(=O)N1CC(c2cccc3cc(-c4nc5cc(C(=O)N6C[C@H]7CC[C@@H]6[C@@H]7N)cc(OC)c5n4Cc4cnn(C)c4)n(C)c23)C1 [Example 216, methyl 3-(2-(5-((1R,4R,7R)-7-amino-2-azabicyclo[2.2.1]heptane-2-carbonyl)-7-methoxy-1-((1-methyl-1H-pyrazol-4-yl)methyl)-1H-benzo[d]imidazol-2-yl)-1-methyl-1H-indol-7-yl)azetidine-1-carboxylate]  101 nM
7. COC(=O)Nc1ccc(-c2cccc3cc(-c4nc5cc(C(=O)N6C[C@H]7CC[C@@H]6[C@@H]7N)cc(OC)c5n4C)n(CC4CC4)c23)cn1 [Example 105, methyl N-[5-(2-{5-[(1R,4R,7R)-7-amino-2-azabicyclo[2.2.1]heptane-2-carbonyl]-7-methoxy-1-methyl-1H-1,3-benzodiazol-2-yl}-1-(cyclopropylmethyl)-1H-indol-7-yl)pyridin-2-yl]carbamate]  99 nM
8. COc1cc(C(=O)N2C[C@H]3CC[C@@H]2[C@@H]3N)cc2nc(-c3cc4cccc(-c5ccc(C(N)=O)c(Cl)c5)c4n3CC3CC3)n(C)c12 [Example 104, 4-(2-{5-[(1R,4R,7R)-7-amino-2-azabicyclo[2.2.1]heptane-2-carbonyl]-7-methoxy-1-methyl-1H-1,3-benzodiazol-2-yl}-1-(cyclopropylmethyl)-1H-indol-7-yl)-2-chlorobenzamide]  93 nM
9. COc1cc(C(=O)N2C[C@H]3CC[C@@H]2[C@@H]3N)cc2nc(-c3cc4cccc(Nc5cnn(CC(F)(F)F)c5)c4n3CC3CC3)n(C)c12 [Example 165, ((1R,4R,7R)-7-amino-2-azabicyclo[2.2.1]heptan-2-yl)(2-(1-(cyclopropylmethyl)-7-((1-(2,2,2-trifluoroethyl)-1H-pyrazol-4-yl)amino)-1H-indol-2-yl)-7-methoxy-1-methyl-1H-benzo[d]imidazol-5-yl)methanone]  75 nM
10. COc1cc(C(=O)N2C[C@H](N)C[C@@H](F)C2)cc2nc(-c3cc4cccc(C5CC(C(=O)N6CCCC6)C5)c4n3CC3CC3)n(C)c12 (single isomer, unassigned) [Example 115]  64 nM
11. COc1cc(C(=O)N2C[C@H]3CC[C@@H]2[C@@H]3N)cc2nc(-c3cc4cccc(C5CCC(O)CC5)c4n3CC3CC3)n(C)c12 (stereo partly drawn) [Example 24, 4-(2-{5-[(1R,4R,7R)-7-amino-2-azabicyclo[2.2.1]heptane-2-carbonyl]-7-methoxy-1-methyl-1H-1,3-benzodiazol-2-yl}-1-(cyclopropylmethyl)-1H-indol-7-yl)cyclohexan-1-ol]  61 nM
12. COC(=O)c1cc(=O)[nH]c2ccc(-c3cccc4cc(-c5nc6cc(C(=O)N7C[C@H]8CC[C@@H]7[C@@H]8N)cc(OC)c6n5C)n(CC5CC5)c34)cc12 [Example 101, methyl 6-(2-{5-[(1R,4R,7R)-7-amino-2-azabicyclo[2.2.1]heptane-2-carbonyl]-7-methoxy-1-methyl-1H-1,3-benzodiazol-2-yl}-1-(cyclopropylmethyl)-1H-indol-7-yl)-2-oxo-1,2-dihydroquinoline-4-carboxylate]  47 nM
13. COC(=O)N1CC(c2cccc3cc(-c4nc5cc(C(=O)N6C[C@H]7CC[C@@H]6[C@@H]7N)cc(OC)c5n4Cc4cnn(C)c4)n(CC4CC4)c23)C1 [Example 213, methyl 3-(2-(5-((1R,4R,7R)-7-amino-2-azabicyclo[2.2.1]heptane-2-carbonyl)-7-methoxy-1-((1-methyl-1H-pyrazol-4-yl)methyl)-1H-benzo[d]imidazol-2-yl)-1-(cyclopropylmethyl)-1H-indol-7-yl)azetidine-1-carboxylate]  21 nM
14. COCC(=O)N1CC(c2cccc3cc(-c4nc5cc(C(=O)N6C[C@H]7CC[C@@H]6[C@@H]7N)cc(OC)c5n4C)n(CC4CC4)c23)C1 [Example 71, 1-[3-(2-{5-[(1R,4R,7R)-7-amino-2-azabicyclo[2.2.1]heptane-2-carbonyl]-7-methoxy-1-methyl-1H-1,3-benzodiazol-2-yl}-1-(cyclopropylmethyl)-1H-indol-7-yl)azetidin-1-yl]-2-methoxyethan-1-one]  16 nM
15. COc1ccccc1NC(=O)N1CCC(c2cccc3cc(-c4nc5cc(C(=O)N6C[C@H]7CC[C@@H]6[C@@H]7N)cc(OC)c5n4C)n(CC4CC4)c23)CC1 [Example 247, 4-(2-(5-((1R,4R,7R)-7-amino-2-azabicyclo[2.2.1]heptane-2-carbonyl)-7-methoxy-1-methyl-1H-benzo[d]imidazol-2-yl)-1-(cyclopropylmethyl)-1H-indol-7-yl)-N-(2-methoxyphenyl)piperi-dine-1-carboxamide]  9 nM
16. COc1cc(C(=O)N2C[C@H]3CC[C@@H]2[C@@H]3N)cc2nc(-c3cc4cccc(C5CCN(C(=O)Nc6ccccc6F)CC5)c4n3CC3CC3)n(C)c12 [Example 243, 4-(2-(5-((1R,4R,7R)-7-amino-2-azabicyclo[2.2.1]heptane-2-carbonyl)-7-methoxy-1-methyl-1H-benzo[d]imidazol-2-yl)-1-(cyclopropylmethyl)-1H-indol-7-yl)-N-(2-fluorophenyl)piperidine-1-carboxamide]  8 nM

Same assay, conditions: human PAD4, rapid-fire mass spectrum (RFMS) assay; 5 nM hPAD4, 250 μM BAEE; read-out: hPAD4 RFMS IC50

In order of falling IC50:
1. COc1cc(C(=O)N2C[C@H]3CC[C@@H]2[C@@H]3N)cc2nc(-c3cc4cccc(-c5ccc(O)c(C(N)=O)c5)c4n3CC3CC3)n(C)c12 [Example 120, 5-(2-(5-((1R,4R,7R)-7-amino-2-azabicyclo[2.2.1]heptane-2-carbonyl)-7-methoxy-1-methyl-1H-benzo[d]imidazol-2-yl)-1-(cyclopropylmethyl)-1H-indol-7-yl)-2-hydroxybenzamide]  65 nM
2. COc1cc(C(=O)N2C[C@H]3CC[C@@H]2[C@@H]3N)cc2nc(-c3cc4cccc(C5CCCC(C(N)=O)C5)c4n3CC3CC3)n(C)c12 (single isomer, unassigned) [Example 85]  49 nM
3. COc1cc(C(=O)N2C[C@H]3CC[C@@H]2[C@@H]3N)cc2nc(-c3cc4cccc(C5CN(C(C)=O)C5)c4n3CC3CC3)n(C)c12 [Example 37, 1-(3-(2-(5-((1R,4R,7R)-7-amino-2-azabicyclo[2.2.1]heptane-2-carbonyl)-7-methoxy-1-methyl-1H-benzo[d]imidazol-2-yl)-1-(cyclopropylmethyl)-1H-indol-7-yl)azetidin-1-yl)ethan-1-one]  26 nM
4. COc1cc(C(=O)N2C[C@H]3CC[C@@H]2[C@@H]3N)cc2nc(-c3cc4cccc(C5CCN(C(=O)Nc6ccccc6)CC5)c4n3CC3CC3)n(C)c12 [Example 187, 4-(2-(5-((1R,4R,7R)-7-amino-2-azabicyclo[2.2.1]heptane-2-carbonyl)-7-methoxy-1-methyl-1H-benzo[d]imidazol-2-yl)-1-(cyclopropylmethyl)-1H-indol-7-yl)-N-phenylpiperidine-1-carboxamide]  18 nM
